Reference: US8178668B2, “2-aminopyridine kinase inhibitors” (OSI Pharmaceuticals, LLC, priority 2008, dated 2012)
Where a name gives a salt, the structure may show the parent alone.

Columns and labels:
[1] = molecular target: RON (human) (Homo sapiens, UniProt Q04912); assay: RON kinase AlphaScreen assay (Km of ATP); format: biochemical; settings: ATP at Km; at least duplicate experiments
Outline: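 AlphaScreen with PT66 donor/acceptor beads, read after 1 h, detected phosphorylation of biotinylated poly(Glu,Tyr) by human RON. Enzyme-started reactions ran 30 min at room temperature with ATP at Km. Buffer was HEPES pH 7.4 with MgCl2, glycerol, vanadate and 1% DMSO.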

[2] = molecular target: MET (human) (Homo sapiens, UniProt P08581); assay: MET kinase AlphaScreen assay (Km of ATP); format: biochemical; settings: ATP at Km; at least duplicate experiments
Outline: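 AlphaScreen detection with PT66 beads (1 h) follows a 60 min room-temperature MET reaction. Substrate is 200 ng/μL biotinylated poly(Glu,Tyr), with ATP set at an enzyme-optimized concentration. Buffer is HEPES pH 7.4 with MgCl2, MnCl2 and 0.334 mM vanadate, compounds at 1% DMSO.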

Sequence of RON (human) (Q04912 25-1400): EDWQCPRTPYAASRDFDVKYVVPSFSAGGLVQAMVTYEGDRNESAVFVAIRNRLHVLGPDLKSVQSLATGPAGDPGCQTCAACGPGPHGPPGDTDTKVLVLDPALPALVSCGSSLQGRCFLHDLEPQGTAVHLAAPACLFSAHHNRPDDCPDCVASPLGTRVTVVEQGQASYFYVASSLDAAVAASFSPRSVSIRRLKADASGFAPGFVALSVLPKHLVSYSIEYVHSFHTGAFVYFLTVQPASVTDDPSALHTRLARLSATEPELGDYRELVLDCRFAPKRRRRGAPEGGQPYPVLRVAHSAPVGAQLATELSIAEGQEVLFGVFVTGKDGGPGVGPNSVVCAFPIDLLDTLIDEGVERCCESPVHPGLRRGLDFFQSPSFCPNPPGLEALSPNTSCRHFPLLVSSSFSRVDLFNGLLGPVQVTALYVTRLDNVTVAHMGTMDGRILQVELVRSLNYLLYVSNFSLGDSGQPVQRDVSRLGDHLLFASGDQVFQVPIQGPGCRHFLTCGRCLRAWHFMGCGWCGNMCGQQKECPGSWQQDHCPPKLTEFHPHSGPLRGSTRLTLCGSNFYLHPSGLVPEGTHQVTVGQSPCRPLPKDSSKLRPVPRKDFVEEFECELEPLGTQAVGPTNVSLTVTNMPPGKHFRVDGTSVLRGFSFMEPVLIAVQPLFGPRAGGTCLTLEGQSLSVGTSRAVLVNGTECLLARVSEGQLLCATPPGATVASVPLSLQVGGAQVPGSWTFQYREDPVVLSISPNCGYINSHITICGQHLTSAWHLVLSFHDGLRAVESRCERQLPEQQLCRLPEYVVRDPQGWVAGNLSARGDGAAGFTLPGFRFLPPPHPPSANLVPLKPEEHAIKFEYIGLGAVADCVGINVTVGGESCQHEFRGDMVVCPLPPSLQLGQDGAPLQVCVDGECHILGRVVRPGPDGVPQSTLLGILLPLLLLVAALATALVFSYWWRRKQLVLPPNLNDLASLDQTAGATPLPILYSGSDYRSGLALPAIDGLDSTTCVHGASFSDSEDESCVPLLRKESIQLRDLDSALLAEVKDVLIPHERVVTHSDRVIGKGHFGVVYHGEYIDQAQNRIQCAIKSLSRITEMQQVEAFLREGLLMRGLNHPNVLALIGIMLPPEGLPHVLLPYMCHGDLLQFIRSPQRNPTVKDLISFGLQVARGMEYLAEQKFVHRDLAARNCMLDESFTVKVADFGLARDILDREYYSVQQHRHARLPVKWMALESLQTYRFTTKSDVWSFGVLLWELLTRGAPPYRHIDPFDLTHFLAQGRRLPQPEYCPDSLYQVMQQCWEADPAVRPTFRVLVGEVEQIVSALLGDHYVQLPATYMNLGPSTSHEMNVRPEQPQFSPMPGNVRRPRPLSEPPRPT
Sequence of MET (human) (P08581 25-1390): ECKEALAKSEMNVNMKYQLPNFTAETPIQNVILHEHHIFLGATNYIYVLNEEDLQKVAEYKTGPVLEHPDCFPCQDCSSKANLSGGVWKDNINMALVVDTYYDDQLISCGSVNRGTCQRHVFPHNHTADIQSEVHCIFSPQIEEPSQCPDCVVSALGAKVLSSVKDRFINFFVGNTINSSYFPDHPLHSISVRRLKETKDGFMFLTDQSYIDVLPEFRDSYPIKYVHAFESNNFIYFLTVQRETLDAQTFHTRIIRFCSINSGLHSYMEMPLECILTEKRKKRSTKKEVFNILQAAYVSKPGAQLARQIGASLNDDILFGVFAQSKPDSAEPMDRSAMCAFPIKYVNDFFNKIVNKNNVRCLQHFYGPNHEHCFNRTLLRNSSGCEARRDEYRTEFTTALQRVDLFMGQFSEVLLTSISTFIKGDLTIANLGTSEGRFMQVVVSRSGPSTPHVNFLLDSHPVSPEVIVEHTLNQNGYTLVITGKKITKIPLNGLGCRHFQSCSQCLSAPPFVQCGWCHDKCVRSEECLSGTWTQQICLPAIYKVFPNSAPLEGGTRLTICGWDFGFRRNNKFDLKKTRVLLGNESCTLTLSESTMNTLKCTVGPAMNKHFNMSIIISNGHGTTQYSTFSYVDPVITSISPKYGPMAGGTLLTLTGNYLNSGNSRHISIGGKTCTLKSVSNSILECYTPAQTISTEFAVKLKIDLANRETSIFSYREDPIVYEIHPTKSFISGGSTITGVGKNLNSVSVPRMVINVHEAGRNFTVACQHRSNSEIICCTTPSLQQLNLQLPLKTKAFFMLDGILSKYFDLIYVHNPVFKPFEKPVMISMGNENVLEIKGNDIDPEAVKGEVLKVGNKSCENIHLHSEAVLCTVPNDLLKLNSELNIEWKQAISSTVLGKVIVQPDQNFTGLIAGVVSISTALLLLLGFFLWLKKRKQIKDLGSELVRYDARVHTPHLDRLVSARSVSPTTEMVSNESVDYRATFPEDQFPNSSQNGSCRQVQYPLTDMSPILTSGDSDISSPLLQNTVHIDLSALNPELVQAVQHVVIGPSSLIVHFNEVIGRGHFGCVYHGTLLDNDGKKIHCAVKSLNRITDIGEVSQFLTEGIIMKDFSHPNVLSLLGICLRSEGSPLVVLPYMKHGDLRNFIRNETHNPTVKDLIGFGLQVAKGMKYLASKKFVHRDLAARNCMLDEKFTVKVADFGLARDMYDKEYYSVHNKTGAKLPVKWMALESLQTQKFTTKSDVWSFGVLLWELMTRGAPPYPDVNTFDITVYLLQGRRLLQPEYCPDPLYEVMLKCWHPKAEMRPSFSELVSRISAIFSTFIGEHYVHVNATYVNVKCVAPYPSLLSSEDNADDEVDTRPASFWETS

Compound | IC50 [1] [nM] | IC50 [2] [nM]
CCOC(=O)COc1ccc(-c2cnc(N)c(-c3cc4c(Cl)ccc(F)c4cn3)c2)cc1 [Example 83, Ethyl-[4-(6-amino-5-(5-chloro-8-fluoroisoquinolin-3-yl)pyridin-3-yl)phenoxy]acetate] | 1000 to 20000 | 1000 to 20000
Nc1ncc(-c2ccc(O)nc2)cc1-c1cc2c(Cl)ccc(F)c2cn1 [Example 84, 6′-Amino-5′-(5-chloro-8-fluoroisoquinolin-3-yl)-3,3′-bipyridin-6-ol] | 1000 to 20000 | 1000 to 20000
Nc1ncc(-c2ccoc2)cc1-c1cc2c(Cl)ccc(F)c2cn1 [Example 85, 3-(5-Chloro-8-fluoroisoquinolin-3-yl)-5-furan-3-ylpyridin-2-amine] | > 20000 | 1000 to 20000
Nc1ncc(-c2ccco2)cc1-c1cc2c(Cl)ccc(F)c2cn1 [Example 86, 3-(5-Chloro-8-fluoroisoquinolin-3-yl)-5-furan-2-ylpyridin-2-amine] | > 20000 | 1000 to 20000
Nc1ncc(-c2cn[nH]c2)cc1-c1cc2c(Cl)ccc(F)c2cn1 [Example 87, 3-(5-Chloro-8-fluoroisoquinolin-3-yl)-5-(1H-pyrazol-4-yl)pyridin-2-amine] | 1000 to 20000 | 1000 to 20000
Nc1ncc(-c2ccc(NCCN3CCOCC3)nc2)cc1-c1cc2c(Cl)ccc(F)c2cn1 [Example 88, 3-(5-Chloro-8-fluoroisoquinolin-3-yl)-5-N6′-(2-morpholin-4-ylethyl)-3,3′-bipyridine-6,6′-diamine] | 1000 to 20000 | 1000 to 20000
Nc1ncc(-c2cc3ccccc3[nH]2)cc1-c1cc2c(Cl)ccc(F)c2cn1 [Example 89, 3-(5-Chloro-8-fluoroisoquinolin-3-yl)-5-(1H-indol-2-yl)pyridin-2-amine] | 1000 to 20000 | 1000 to 20000
COc1ccc(Cl)c2cc(-c3cc(-c4ccc(C(=O)O)cc4)cnc3N)ncc12 [Example 90, 4-[6-Amino-5-(5-chloro-8-methoxyisoquinolin-3-yl)-pyridin-3-yl]benzoic acid] | 100 to 1000 | 100 to 1000
COc1ccc(Cl)c2cc(-c3cc(-c4cccc(C(=O)O)c4)cnc3N)ncc12 [Example 91, 3-[6-Amino-5-(5-chloro-8-methoxyisoquinolin-3-yl)-pyridin-3-yl]benzoic acid] | > 20000 | > 20000
Nc1ncc(-c2cnn(C3CCNCC3)c2)cc1-c1cc2ccccc2o1 [Example 92, 3-Benzofuran-2-yl-5-(1-piperidin-4-yl-1H-pyrazol-4-yl)-pyridin-2-ylamine dihydrochloride] | 1000 to 20000 | 100 to 1000
Nc1ncc(-c2cnn(C3CCNCC3)c2)cc1-c1oc2ccccc2c1Cl [Example 93, 3-(3-Chlorobenzofuran-2-yl)-5-(1-piperidin-4-yl-1H-pyrazol-4-yl)-pyridin-2-ylamine dihydrochloride] | 100 to 1000 | 100 to 1000
Cc1c(-c2cc(-c3cnn(C4CCNCC4)c3)cnc2N)oc2ccccc12 [Example 94, 3-(3-Methylbenzofuran-2-yl)-5-(1-piperidin-4-yl-1H-pyrazol-4-yl)pyridin-2-ylamine bishydrochloride] | 1000 to 20000 | 100 to 1000
Nc1ncc(-c2cnn(C3CCNCC3)c2)cc1-c1oc2ccccc2c1Br [Example 95, 3-(3-Bromobenzofuran-2-yl)-5-(1-piperidin-4-yl-1H-pyrazol-4-yl)-pyridin-2-ylamine trifluoroacetate] | 1000 to 20000 | 1000 to 20000
Nc1ncc(-c2cnn(C3CCNCC3)c2)cc1-c1oc2ccccc2c1-c1ccccc1 [Example 96, 3-(3-Phenylbenzofuran-2-yl)-5-(1-piperidin-4-yl-1H-pyrazol-4-yl)pyridine-2-ylamine] | 1000 to 20000 | 1000 to 20000
Nc1ncc(-c2cnn(C3CCNCC3)c2)cc1-c1oc2ccccc2c1-c1cccc(Cl)c1F [Example 97, 3-[3-(3-Chloro-2-fluorophenyl)benzofuran-2-yl]-5-(1-piperidin-4-yl-1H-pyrazol-4-yl)pyridine-2-ylamine] | 1000 to 20000 | 100 to 1000
Nc1ncc(-c2cnn(C3CCNCC3)c2)cc1-c1oc2ccccc2c1-c1cccc(F)c1F [Example 98, 3-[3-(2,3-Difluorophenyl)benzofuran-2-yl]-5-(1-piperidin-4-yl-1H-pyrazol-4-yl)pyridine-2-ylamine] | 1000 to 20000 | 100 to 1000
Nc1ncc(-c2cnn([C@@H]3CCNC3)c2)cc1-c1cc2ccccc2o1 [Example 99, 3-Benzofuran-2-yl-5-((R)-1-pyrrolidin-3-yl-1H-pyrazol-4-yl)-pyridin-2-ylamine dihydrochloride] | 100 to 1000 | 100 to 1000

Compound | IC50 [1] [nM] | IC50 [2] [nM]
Nc1ncc(-c2cnn([C@H]3CCNC3)c2)cc1-c1cc2ccccc2o1 [Example 100, 3-Benzofuran-2-yl-5-((S)-1-pyrrolidin-3-yl-1H-pyrazol-4-yl)-pyridin-2-ylamine dihydrochloride] | 100 to 1000 | 100 to 1000
Cn1cc(-c2cnc(N)c(-c3cc4ccccc4o3)c2)cn1 [Example 101, 3-Benzofuran-2-yl-5-(1-methyl-1H-pyrazol-4-yl)-pyridin-2-ylamine bis-hydrochloride] | 1000 to 20000 | 1000 to 20000
CC(C)n1cc(-c2cnc(N)c(-c3cc4ccccc4o3)c2)cn1 [Example 102, 3-Benzofuran-2-yl-5-(1-isopropyl-1H-pyrazol-4-yl)-pyridin-2-ylamine bis-hydrochloride] | 1000 to 20000 | 100 to 1000
CN(C)C(=O)N1CCC(n2cc(-c3cnc(N)c(-c4cc5ccccc5o4)c3)cn2)CC1 [Example 103, 4-[4-(6-Amino-5-benzofuran-2-yl-pyridin-3-yl)-pyrazol-1-yl]-piperidine-1-carboxylic acid dimethylamide bis-hydrochloride] | 1000 to 20000 | 100 to 1000
Nc1ncc(-c2cnn(C3CCNCC3)c2)cc1-c1cc2ccccc2s1 [Example 104, 3-Benzo[b]thiophen-2-yl-5-(1-piperidin-4-yl-1H-pyrazol-4-yl)-pyridin-2-ylamine bishydrochloride] | 100 to 1000 | ≤ 100
Cc1c(-c2cc(-c3cnn(C4CCNCC4)c3)cnc2N)sc2ccccc12 [Example 105, 3-(3-Methylbenzo[b]thiophen-2-yl)-5-(1-piperidin-4-yl-1H-pyrazol-4-yl)pyridin-2-ylamine bishydrochloride] | 1000 to 20000 | 1000 to 20000
Nc1ncc(-c2cnn(C3CCNCC3)c2)cc1-c1nc2ccccc2o1 [Example 106, 3-Benzoxazol-2-yl-5-(1-piperidin-4-yl-1H-pyrazol-4-yl)-pyridin-2-ylamine dihydrochloride] | 100 to 1000 | ≤ 100
Nc1ncc(-c2cnn(C3CCNCC3)c2)cc1-c1nc2ccccc2s1 [Example 107, 3-Benzothiazol-2-yl-5-(1-piperidin-4-yl-1H-pyrazol-4-yl)-pyridin-2-ylamine dihydrochloride] | ≤ 100 | ≤ 100
CN1C2CCC1CC(n1cc(-c3cnc(N)c(-c4nc5ccccc5s4)c3)cn1)C2 (centres unmarked) [Example 108, 3-Benzothiazol-2-yl-5-[1-(8-methyl-8-azabicyclo [3.2.1]oct-3-yl)-1H-pyrazol-4-yl]-pyridin-2-ylamine trihydrochloride] | ≤ 100 | ≤ 100
CN1C2CCC1CC(n1cc(-c3cnc(N)c(-c4nc5ccccc5s4)c3)cn1)C2 (centres unmarked) [Example 109, 3-Benzothiazol-2-yl-5-[1-(8-methyl-8-azabicyclo[3.2.1]oct-3-yl)-1H-pyrazol-4-yl]-pyridin-2-ylamine] | ≤ 100 | ≤ 100
Nc1ncc(-c2cnn(C3CC4CCC(C3)N4)c2)cc1-c1nc2ccccc2s1 (centres unmarked) [Example 110, 5-[1-(8-Azabicyclo[3.2.1]oct-3-yl)-1H-pyrazol-4-yl]-3-benzothiazol-2-ylpyridin-2-ylamine] | 100 to 1000 | 100 to 1000
Nc1ncc(-c2cnn(C3CCOCC3)c2)cc1-c1nc2ccccc2s1 [Example 111, 3-Benzothiazol-2-yl-5-[1-(tetrahydropyran-4-yl)-1H-pyrazol-4-yl]-pyridin-2-ylamine] | 100 to 1000 | 100 to 1000
Nc1ncc(-c2cn[nH]c2)cc1-c1nc2ccccc2s1 [Example 112, 3-Benzothiazol-2-yl-5-(1H-pyrazol-4-yl)-pyridin-2-ylamine] | 1000 to 20000 | 1000 to 20000
Nc1ncc(-c2cnn(C3CCCCC3)c2)cc1-c1nc2ccccc2s1 [Example 113, 3-Benzothiazol-2-yl-5-(1-cyclohexyl-1H-pyrazol-4-yl)-pyridin-2-ylamine bis-hydrochloride] | 1000 to 20000 | 100 to 1000
COCCN1CCC(n2cc(-c3cnc(N)c(-c4nc5ccccc5s4)c3)cn2)CC1 [Example 114, 3-Benzothiazol-2-yl-5-1-[1-(2-methoxyethyl)-piperidin-4-yl]-1H-pyrazol-4-yl-pyridin-2-ylamine] | 100 to 1000 | 100 to 1000
Nc1ncc(-c2cnn(C3CCN(CC(F)(F)F)CC3)c2)cc1-c1nc2ccccc2s1 [Example 115, 3-Benzothiazol-2-yl-5-1-[1-(2,2,2-trifluoroethyl)-piperidin-4-yl]-1H-pyrazol-4-yl-pyridin-2-ylamine dihydrochloride] | 1000 to 20000 | 1000 to 20000
NC(=O)N1CCC(n2cc(-c3cnc(N)c(-c4nc5ccccc5s4)c3)cn2)CC1 [Example 116, 4-[4-(6-Amino-5-benzothiazol-2-yl-pyridin-3-yl)-pyrazol-1-yl]-piperidine-1-carboxamide bis-hydrochloride] | 100 to 1000 | 100 to 1000
